Reference: US20210000894A1, “Anti-Stress Composition” (MORINAGA MILK INDUSTRY CO., LTD., priority 2018, published 2021)

Test system: social defeat stress-bearing C57BL/6J mice
Experiment: Social defeat stress: escape time (time taken to be bitten 20 times by the male ICR mouse)
Format: in vivo
Details: for escape time, average value: C57BL/6J mice, L. helveticus as living cells orally once a day
Experimental: In the present experiment, an experiment of causing a small mouse to experience social defeat by allowing the small mouse to be bitten many times by a large mouse was carried out, and an effect of Lactobacillus helveticus on behavioral changes caused by social defeat stress (decrease in escape behavior, a lethargic state) was investigated. In the present experiment, C57BL/6J mice were used as social defeat stress-bearing mice. In a cage of male and female ICR mice cohabiting for three weeks or longer, only the male parent was left. A C57BL/6J mouse was brought into that cage, and the time taken by the C57BL/6J mouse to be bitten 20 times by the male parent mouse (escape time) was measured. As the escape time increases, it is implied that the C57BL/6J mouse attempts to escape from the ICR mouse, and therefore, it was determined that the social defeat stress is reduced. From two days before the beginning of giving social defeat stress until the end of the behavioral test, the experiment was carried out respectively for mice to which milnacipran was administered (Toledomin tablets; manufactured by Janssen Pharmaceutical K.K.) (positive control), mice to which nothing was administered (vehicle control), and mice to which living bacterial cells of Lactobacillus helveticus NITE BP-01671 were orally administered once a day using a sonde needle.

Question: Which “escape time compared to the vehicle control (in words)” value (C57BL/6J mice under social defeat stress, summary of Table 1) does the source give for `CCN(CC)C(=O)C1(c2ccccc2)CC1CN` (stereo not shown) [milnacipran] here?
Answer: increased significantly compared to the vehicle control

Question: What about the “escape time, average value” (Day 1, administered from two days before stress) of the same molecule?
Answer: 24.6 s

Question: And the “escape time, average value” (Day 2)?
Answer: 42.9 s

Question: What about the “escape time, average value” (Day 3) of the same molecule?
Answer: 65.9 s

Question: And the “escape time, average value” (Day 4)?
Answer: 63.2 s

Question: And the “escape time, average value” (Day 5)?
Answer: 81.0 s

Question: What about the “escape time, average value” (Day 8) of the same molecule?
Answer: 114.8 s

Question: And the “escape time, average value” (Day 9)?
Answer: 159.0 s

Question: And the “escape time, average value” (Day 10)?
Answer: 183.2 s

Question: And the “escape time, average value” (Day 11)?
Answer: 183.9 s

Question: What about the “escape time, average value” (Day 12) of the same molecule?
Answer: 143.2 s

Question: And the “escape time, average value” (Day 15)?
Answer: 68.7 s

Question: And the “escape time, average value” (Day 16)?
Answer: 46.9 s
